In experiment [1] the target is Histone deacetylase 1 (Homo sapiens) (UniProt Q13547). The experiment is described as follows: Inhibition of HDAC1.
For experiment [2], the system named is HCT-116. The experiment in a line: Growth inhibition of human HCT116 cells after 72 hrs. Format: functional.

Sequence of Histone deacetylase 1 (Homo sapiens) (Q13547 whole entry): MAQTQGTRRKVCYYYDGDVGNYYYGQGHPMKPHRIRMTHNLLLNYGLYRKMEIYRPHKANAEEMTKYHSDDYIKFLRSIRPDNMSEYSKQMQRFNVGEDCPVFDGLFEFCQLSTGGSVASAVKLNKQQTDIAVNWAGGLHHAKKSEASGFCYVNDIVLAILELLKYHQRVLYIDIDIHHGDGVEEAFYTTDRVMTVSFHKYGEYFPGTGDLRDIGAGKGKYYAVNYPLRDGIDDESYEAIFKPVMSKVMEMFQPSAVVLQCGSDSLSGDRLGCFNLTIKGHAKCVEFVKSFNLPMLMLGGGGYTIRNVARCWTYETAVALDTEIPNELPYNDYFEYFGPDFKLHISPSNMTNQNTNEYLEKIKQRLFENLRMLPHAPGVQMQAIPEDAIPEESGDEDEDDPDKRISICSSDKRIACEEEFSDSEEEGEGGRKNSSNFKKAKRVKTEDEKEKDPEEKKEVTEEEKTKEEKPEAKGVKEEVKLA

For `COc1ccc(NC(=O)C(NC(=O)Cc2ccccc2)c2ccc(C(=O)Nc3ccccc3N)cc2)cc1` (stereo not drawn), the Inflection point in experiment [1] came to 870 nM; in experiment [2], 6400 nM. With `Nc1ccccc1NC(=O)c1cc2ccc(C(C(=O)NCc3ccccc3)N3CCN(C/C=C/c4ccccc4)CC3)cc2s1` (stereo not drawn), in experiment [1], the Inflection point was 230 nM. With `CN1CCN(C(Cc2ccc(C(=O)Nc3ccccc3N)cc2)C(=O)Nc2ccc(Cl)cc2)CC1` (stereo not drawn), the Inflection point came out at 310 nM in experiment [1] and 370 nM in experiment [2]. As to `Nc1ccccc1NC(=O)c1ccc(C(C(=O)Nc2ccc3ccccc3c2)N2CCN(CCc3ccccc3)CC2)cc1` (stereo not drawn), the Inflection point in experiment [1] came out at 680 nM. As for `CN(C)CCNC(C(=O)NCc1ccccc1)c1ccc2cc(C(=O)Nc3ccccc3N)sc2c1` (stereo not drawn), the Inflection point in experiment [1] worked out at 150 nM.

In the case of `COc1ccc(NC(=O)C(NC(=O)CCc2ccccc2)c2ccc(C(=O)Nc3ccccc3N)cc2)cc1` (stereo not drawn), the Inflection point in experiment [1] came to 260 nM; in experiment [2] it was 2800 nM. For `Cc1ccc(NC(=O)C(NC(=O)CCc2ccccc2)c2ccc(C(=O)Nc3ccccc3N)cc2)cc1` (stereo not drawn), in that order: 340 nM and 3000 nM. Consider `Nc1ccccc1NC(=O)c1cc2ccc(C(NCCc3ccccc3)C(=O)NCc3ccccc3)cc2s1` (stereo not drawn), for which the Inflection point in experiment [1] came to 70 nM. On the same count and under the same terms, with `Nc1ccccc1NC(=O)c1cc2ccc(C(NCCc3ccccc3)C(=O)NCCN3CCOCC3)cc2s1` (stereo not drawn) the figure was 230 nM. With `Cc1ccc(NC(=O)C(c2ccc3cc(C(=O)Nc4ccccc4N)sc3c2)N2CCN(C)CC2)cc1` (single isomer, unassigned; enantiomer 1) [listing 1 of 2 here], the Inflection point in experiment [2] is reported as 130 nM. In the case of `CN1CCN(C(C(=O)Nc2ccc3ccccc3c2)c2ccc(C(=O)Nc3ccccc3N)cc2)CC1` (stereo not drawn), the Inflection point turned out to be 360 nM in experiment [1] and 640 nM in experiment [2]. For the molecule `Nc1ccccc1NC(=O)c1cc2ccc(C(C(=O)NCc3ccccc3)N3CCN(CCc4ccccc4)CC3)cc2s1` (stereo not drawn), the Inflection point in experiment [1] came to 180 nM. Regarding `CN1CCN(C(Cc2ccc(C(=O)Nc3ccccc3N)cc2)C(=O)Nc2ccc3ccccc3c2)CC1` (stereo not drawn), the Inflection point was found to be 37 nM in experiment [1] and 220 nM in experiment [2].

In experiment [1], `Nc1ccccc1NC(=O)c1cc2ccc(C(NCCO)C(=O)NCc3ccccc3)cc2s1` (stereo not drawn) had an Inflection point of 150 nM. With `Nc1ccccc1NC(=O)c1ccc(C(NC(=O)Cc2ccccc2)C(=O)Nc2ccc3ccccc3c2)cc1` (stereo not drawn), the Inflection point in experiment [1] came to 170 nM; in experiment [2], 2700 nM. `COc1ccc(NC(=O)C(NCc2ccccc2)c2ccc3cc(C(=O)Nc4ccccc4N)sc3c2)cc1` (stereo not drawn) returned an Inflection point in experiment [1] of 79 nM.

Turning to `COc1ccc(NC(=O)C(c2ccc3cc(C(=O)Nc4ccccc4N)sc3c2)N2CCN(C)CC2)cc1` (stereo not drawn), the Inflection point in experiment [1] was 43 nM; in experiment [2] it was 410 nM.

As for `COc1ccc(NC(=O)C(NC2CCCCC2)c2ccc3cc(C(=O)Nc4ccccc4N)sc3c2)cc1` (stereo not drawn), in experiment [1], the Inflection point was found to be 74 nM. For `CN1CCN(C(C(=O)Nc2ccc(Cl)cc2)c2ccc3cc(C(=O)Nc4ccccc4N)sc3c2)CC1` (stereo not drawn), the figures for the Inflection point in experiment [1] and in experiment [2] were 62 nM and 340 nM, respectively. With `CN1CCN(C(C(=O)Nc2ccc3ccccc3c2)c2ccc3cc(C(=O)Nc4ccccc4N)sc3c2)CC1` (stereo not drawn), the Inflection point in experiment [1] amounted to 25 nM; in experiment [2] it was 580 nM. For `CCN1CCN(C(C(=O)NCc2ccccc2)c2ccc3cc(C(=O)Nc4ccccc4N)sc3c2)CC1` (stereo not drawn), in that order: 80 nM and 490 nM. For `CN1CCN(C(C(=O)NCc2ccccc2)c2ccc3cc(C(=O)Nc4ccccc4N)sc3c2)CC1` (stereo not drawn), in that order: 110 nM and 430 nM. In turn, `Cc1ccc(NC(=O)C(c2ccc3cc(C(=O)Nc4ccccc4N)sc3c2)N2CCN(C)CC2)cc1` (single isomer, unassigned; enantiomer 2) [listing 1 of 2 here] gave an Inflection point in experiment [2] of 560 nM. With `Nc1ccccc1NC(=O)c1cc2ccc(C(NCc3cccnc3)C(=O)NCc3ccccc3)cc2s1` (stereo not drawn), the Inflection point in experiment [1] turned out to be 180 nM. Still for that read-out and setting: the value for `Cc1ccc(NC(=O)C(c2ccc3cc(C(=O)Nc4ccccc4N)sc3c2)N2CCN(C)CC2)cc1` (single isomer, unassigned; enantiomer 2) [listing 2 of 2 here] was 18 nM; that for `COc1ccc(CNC(C(=O)Nc2ccc(OC)cc2)c2ccc3cc(C(=O)Nc4ccccc4N)sc3c2)cc1` (stereo not drawn) was 90 nM; that for `Nc1ccccc1NC(=O)c1cc2ccc(C(NCCc3ccccn3)C(=O)NCc3ccccc3)cc2s1` (stereo not drawn) was 110 nM. The same measure, in the same setting: with `CC(C)(C)OC(=O)N1CCN(C(C(=O)NCc2ccccc2)c2ccc3cc(C(=O)Nc4ccccc4N)sc3c2)CC1` (stereo not drawn) the figure was 260 nM.

With `Nc1ccccc1NC(=O)c1ccc(C(NC(=O)CCc2ccccc2)C(=O)Nc2ccc3ccccc3c2)cc1` (stereo not drawn), the Inflection point in experiment [1] was determined as 250 nM; in experiment [2], 2700 nM. As to `Nc1ccccc1NC(=O)c1ccc(C(C(=O)Nc2ccc3ccccc3c2)N2CCN(c3ccccc3)CC2)cc1` (stereo not drawn), in experiment [1], the Inflection point came to 620 nM. The molecule `Nc1ccccc1NC(=O)c1cc2ccc(C(NCCc3ncc[nH]3)C(=O)NCc3ccccc3)cc2s1` (stereo not drawn) came in with an Inflection point in experiment [1] of 520 nM.

In experiment [1], `CN1CCN(C(C(=O)Nc2ccc(Cl)cc2)c2ccc(C(=O)Nc3ccccc3N)cc2)CC1` (stereo not drawn) returned an Inflection point of 6200 nM. As to `Cc1ccc(NC(=O)C(c2ccc3cc(C(=O)Nc4ccccc4N)sc3c2)N2CCN(C)CC2)cc1` (racemic) [listing 1 of 2 here], the Inflection point in experiment [1] was 25 nM.

On to `Nc1ccccc1NC(=O)c1cc2ccc(C(NCCc3ccncc3)C(=O)NCc3ccccc3)cc2s1` (stereo not drawn), for which the Inflection point in experiment [1] worked out at 39 nM. In the case of `COc1ccc(NC(=O)C(NCCc2ccncc2)c2ccc3cc(C(=O)Nc4ccccc4N)sc3c2)cc1` (stereo not drawn), in experiment [1], the Inflection point was found to be 32 nM.

Turning to `COCCNC(C(=O)NCc1ccccc1)c1ccc2cc(C(=O)Nc3ccccc3N)sc2c1` (stereo not drawn), in experiment [1], the Inflection point came to 170 nM.

Molecule `COc1ccc(NC(=O)C(NCCc2ccccc2)c2ccc3cc(C(=O)Nc4ccccc4N)sc3c2)cc1` (stereo not drawn) returned an Inflection point in experiment [1] of 71 nM. With `COc1ccc(NC(=O)C(NCc2ccccc2)c2ccc3cc(C(=O)NO)sc3c2)cc1` (stereo not drawn), the Inflection point in experiment [1] amounted to 4 nM. Molecule `Cc1ccc(NC(=O)C(c2ccc3cc(C(=O)Nc4ccccc4N)sc3c2)N2CCN(C)CC2)cc1` (single isomer, unassigned; enantiomer 1) [listing 2 of 2 here] came in with an Inflection point in experiment [1] of 21 nM.

For the molecule `CN1CCN(C(C(=O)NCc2ccccc2)c2ccc(C(=O)Nc3ccccc3N)cc2)CC1` (stereo not drawn), the Inflection point in experiment [1] amounted to 860 nM. As to `Cc1ccc(NC(=O)C(c2ccc3cc(C(=O)Nc4ccccc4N)sc3c2)N2CCN(C)CC2)cc1` (racemic) [listing 2 of 2 here], the Inflection point in experiment [2] was determined as 240 nM. `Nc1ccccc1NC(=O)c1cc2ccc(C(C(=O)NCc3ccccc3)N3CCN(c4ccccc4)CC3)cc2s1` (stereo not drawn) gave an Inflection point in experiment [1] of 150 nM. In experiment [1], `Nc1ccccc1NC(=O)c1cc2ccc(C(C(=O)NCc3ccccc3)N3CCN(C(=O)OCc4ccccc4)CC3)cc2s1` (stereo not drawn) yielded an Inflection point of 470 nM.

Turning to `Cc1ccc(NC(=O)C(NC(=O)Cc2ccccc2)c2ccc(C(=O)Nc3ccccc3N)cc2)cc1` (stereo not drawn), the Inflection point came to 690 nM in experiment [1] and 8100 nM in experiment [2].

Source of the values: ChEMBL document CHEMBL1140793, “Amino acid derivatives as histone deacetylase inhibitors” (2008).
